Assay results taken from US20240294551A1 (AMGEN INC., priority 2022, published 2024).
Like-named read-outs stand apart in the source and are kept apart here.

Tests used:
[1] = system: Phosphorylation of ERK1/2 in AsPC-1 cells; assay: Phospho-ERK1/2 MSD Assay; assay type: cell-based, human; conditions: Homo sapiens, ASPC1, 2 h
Outline: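 Read-out: MSD electrochemiluminescent detection of phosphorylated ERK1/2 in whole-cell lysates, fitted to a 4-parameter logistic curve for IC50. Prior to lysis, AsPC-1 cells (25,000 per well) received a 2 h compound dose-response at 37 °C.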

MIA PaCa-2 cells = assay: MIA PaCa-2 CTG Assay (CellTiter-Glo cell viability); assay type: cell-based, human; conditions: Homo sapiens, second value of the cell
Outline: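 IC50 values come from a 4-parameter logistic fit of CellTiter-Glo luminescence, normalized to DMSO control, after 72 h compound exposure at 37° C, 5% CO2. Cells grew in RPMI 1640 plus 10% FBS and were seeded at 1.67E+04 cells/mL one night before dosing.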

[2] = target: GDP-bound KRAS protein (aa 1-169), containing both G12D and C118A amino acid substitutions (Homo sapiens (Human), UniProt P01116, C118A/G12D); assay: KRAS G12D Coupled Nucleotide Exchange Assay; assay type: biochemical
AsPC-1 cells = assay: AsPC-1 CTG Assay (CellTiter-Glo cell viability); assay type: cell-based, human; conditions: Homo sapiens, ASPC1, 72 h, first value of the cell, read-out: G12D/C/V Cell Proliferation CTG (72 h) AsPC-1
Outline: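 IC50 values derive from 4-parameter logistic fits of CellTiter-Glo luminescence, expressed relative to DMSO. Compound dilution series were applied to overnight-seeded AsPC-1 or SW620 cells (RPMI 1640, 10% FBS) for 72 h at 37 °C, 5% CO2.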

[3] = target: His-tagged KRAS G12D protein (Homo sapiens (Human), UniProt P01116, G12D); assay: KRAS G12D TR-FRET Assay; assay type: binding
Outline: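 Each incubation ran at room temperature: enzyme with compound for 30 minutes, peptide for one hour, and detection reagents (0.4 nM europium anti-6×His, 5 nM streptavidin-d2) for one hour more. Protein and peptide stocks were each diluted to 20 nM before addition.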

[4] = read-out: 2 h p-ERK (AsPC-1 cells), IC50
[5] = Mia PaCa-2, 72 h, read-out: G12D/C/V Cell Proliferation CTG (72 h) Mia PaCa-2
[6] = read-out: KRAS G12D Coupled Exchange IC50
[7] = read-out: KRAS G12D Binding IC50

His-tagged KRAS G12D protein, sequence (P01116 other isoform, or with tags, fused parts or gaps G12D): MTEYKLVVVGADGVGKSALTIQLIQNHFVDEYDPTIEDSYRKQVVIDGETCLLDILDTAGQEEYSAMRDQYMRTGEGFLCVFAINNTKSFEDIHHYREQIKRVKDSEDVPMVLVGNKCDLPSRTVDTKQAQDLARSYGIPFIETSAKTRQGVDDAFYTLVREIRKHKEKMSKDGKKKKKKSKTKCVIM
GDP-bound KRAS protein (aa 1-169), containing both G12D and C118A amino acid substitutions, sequence (P01116 other isoform, or with tags, fused parts or gaps G12D/C118A): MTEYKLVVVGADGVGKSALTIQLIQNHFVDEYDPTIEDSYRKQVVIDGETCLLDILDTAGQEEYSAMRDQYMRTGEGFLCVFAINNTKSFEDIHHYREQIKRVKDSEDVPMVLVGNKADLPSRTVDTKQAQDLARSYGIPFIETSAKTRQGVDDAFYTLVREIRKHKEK

IC50 [1, 4] [nM] | IC50 (MIA PaCa-2 cells; [5]) [nM] | IC50 [2, 6] [nM] | IC50 (AsPC-1 cells; AsPC-1, 72 h) [nM] | IC50 [3, 7] [nM] | IC50 ([1]; read-out: 2 h p-ERK (AsPC-1 cells)) [nM] | IC50 (MIA PaCa-2 cells; MIA PaCa-2 cells (G12C), 72 h, read-out: G12D/C/V Cell Proliferation CTG (72 h) MIA PaCa-2) [nM] | IC50 ([2]; 2 hours compound pre-incubation, read-out: KRAS G12D Coupled Exchange) [nM] | IC50 (AsPC-1 cells; AsPC-1 cells (G12D), 72 h) [nM] | IC50 ([3]; TR-FRET, read-out: KRAS G12D Binding) [nM] | SMILES
252 | 230 | 4 | 3360 | 2 | – | – | – | – | – | Cc1cc2[nH]ncc2c2c1CCCn1ccc(n1)[C@H]1CCCN(C1)c1nc(OC[C@@]34CCCN3C[C@H](F)C4)nc3c(F)c-2ncc13 [Example 154, (18S)-31-fluoro-25-(((2R,7aS)-2-fluorotetrahydro-1H-pyrrolo[1,2-a]pyrrol-7a(5H)-yl)methoxy)-9-methyl-5,6,14,22,24,26,30,33-octaazaheptacyclo[25.3.1.1~14,17~.1~18,22~.0~2,10~.0~3,7~.0~23,28~]tritriaconta-1(31),2,4,7,9,15,17(33),23,25,27,29-undecaene]
16 | 200 | 1 | 230 | 3 | – | – | – | – | – | O=C1CCCc2c(F)ccc3cccc(c23)-c2ncc3c(nc(OC[C@@]45CCCN4C[C@H](F)C5)nc3c2F)N2CC[C@H]3CCN1[C@H]3C2 [Example 72, (27S,31R)-18,33-difluoro-4-(((2R,7aS)-2-fluorotetrahydro-1H-pyrrolo[1,2-a]pyrrol-7a(5H)-yl)methoxy)-1,3,5,9,24-pentaazaheptacyclo[22.5.2.1˜6,10˜.1˜11,15˜.0˜2,7˜.0˜19,32˜.0˜27,31˜]tritriaconta-2,4,6,8,10(33),11,13,15(32),16,18-decaen-23-one]
35.1 | 33 | 3 | 183 | 5 | – | – | – | – | – | CN1C[C@H](F)C[C@H]1COc1nc2c3cnc(c(F)c3n1)-c1c(c(Cl)cc3[nH]ncc13)CCCOC(=O)O[C@]1(C)COCCN2C1 [Example 318, (26S)-18-chloro-32-fluoro-4-(((2S,4R)-4-fluoro-1-methyl-2-pyrrolidinyl)methoxy)-26-methyl-23,25,28-trioxa-1,3,5,9,14,15-hexaazahexacyclo[24.4.1.1~6,10~.0~2,7~.0~11,19~.0~12,16~]dotriaconta-2,4,6,8,10(32),11,13,16,18-nonaen-24-one]
– | – | – | – | – | 3 | 10 | 2 | 58 | 5 | CN1CCC[C@H]1COc1nc2c3cnc(c(F)c3n1)-c1c(c(Cl)cc3[nH]ncc13)CCc1cnc(o1)[C@@H](O)[C@@H]1CCCN2C1 [Example 394, (17S,18R)-9-chloro-31-fluoro-25-(((2S)-1-methylpyrrolidin-2-yl)methoxy)-33-oxa-5,6,15,22,24,26,30-heptaazaheptacyclo[25.3.1.1~13,16~.1~18,22~.0~2,10~.0~3,7~.0~23,28~]tritriaconta-1(31),2,4,7,9,13,15,23,25,27,29-undecaen-17-ol]
0.4 | 5 | 1 | 7 | 3 | – | – | – | – | – | O=C1OCCc2c(F)ccc3cc(O)cc(c23)-c2ncc3c(nc(OC[C@@]45CCCN4C[C@H](F)C5)nc3c2F)N2CCOC[C@H](C2)O1 [Example 361, (16S)-23,32-difluoro-8-(((2R,7aS)-2-fluorotetrahydro-1H-pyrrolo[1,2-a]pyrrol-7a(5H)-yl)methoxy)-28-hydroxy-14,17,19-trioxa-3,7,9,11-tetraazahexacyclo[20.7.1.1~2,6~.1~11,16~.0~5,10~.0~26,30~]dotriaconta-1(30),2(32),3,5,7,9,22,24,26,28-decaen-18-one]
20.7 | 38 | 2 | 262 | 3 | – | – | – | – | – | O=C1OCCCc2c(F)cc3[nH]ncc3c2-c2ncc3c(nc(OC[C@@]45CCCN4C[C@H](F)C5)nc3c2F)N2CCOC[C@H](C2)O1 [Example 208, (26S)-18,32-difluoro-4-(((2R,7aS)-2-fluorotetrahydro-1H-pyrrolo[1,2-a]pyrrol-7a(5H)-yl)methoxy)-23,25,28-trioxa-1,3,5,9,14,15-hexaazahexacyclo[24.4.1.1~6,10~.0~2,7~.0~11,19~.0~12,16~]dotriaconta-2,4,6,8,10(32),11,13,16,18-nonaen-24-one]
